Measured values as given in patent publication US9708315B2, “1,2,4-triazolo[4,3-a]pyridine compounds and their use as positive allosteric modulators of MGLUR2 receptors” (Janssen Pharmaceutica NV, priority 2013, dated 2017).

How the values were obtained:
Type in all cases: in vivo
[1] = tested on: Adult male CF No 1 albino mice; assay: 6 Hz psychomotor seizure test in mice; conditions: 10 mg/kg p.o.
Method: Test compounds were administered using an optimal fluid volume to body fluid ratio. Test compounds were administered to mice in a volume of 0.01 ml/g of body weight (White, H. S., et al., General principles: Experimental selection, quantification, and evaluation of antiepileptic drugs, in Antiepileptic Drugs, Fourth Edition, R. H. Levy, R. H. Mattson, and B. S. Meldrum, Editors. 1995, Raven Press, Ltd.: New York. p. 99-110). The test compound number 6 was administered orally (p.o.). For each of the tests performed on the test compound, a 40% Hydroxypropyl-β-cyclodextrin (Hp-β-CD) stock solution was first prepared and utilized for formulating the test compound number 6 at the desired concentrations for testing via the oral (p.o.) route. Final compound concentrations were administered as suspensions in 20% Hp-β-CD. A 20% Hp-β-CD solution was used for the vehicle groups.
Adult male CF No 1 albino mice (26-35 g) were obtained from Charles River, Portage, Mich. The animals were maintained on an adequate diet (Prolab RMH 3000) and allowed free access to food and water, except during the short time they were removed from their cage for testing. Animals newly received in the laboratory were allowed sufficient time to correct for possible food and water restriction incurred during transit before being employed in testing. All mice were housed in plastic cages in specially constructed rooms with controlled humidity, exchange of air and controlled lighting (12 hours on-12 hours off). The animals were housed, fed, and handled in a manner consistent with the recommendations in the National Council Publication, “Guide for the Care and Use of Laboratory animals.” Experimental Design General Methods Minimal Motor Impairment (MMI):
Groups of four animals each were administered test compounds and each group was tested at one of five time points: 0.25, 0.5, 1, 2, or 4 h post-treatment (White et al. 1995). TPE was determined using the 6 Hz (32 mA) assay. The time (0.25, 0.5, 1, 2, or 4 h post-treatment) at which maximal protection was observed was considered the Time of Peak Effect (TPE). At the TPE determined for this study, or determined previously, compounds were tested in the 6 Hz assay (32 and/or 44 mA), across several doses and comprising doses that elicited little or no protection to full protection. […] Serum Collection for pK/pD Analysis: In various tests, animals were sacrificed following testing, and trunk blood and/or brain tissue (whole brains) was collected for quantification of drug levels. Immediately after testing, animals were decapitated and trunk blood was collected into a BD Vacutainer® tube containing K2EDTA and chilled on ice until centrifugation. […]

male NMRI mice = assay: Phencyclidine (PCP)-induced hyperlocomotion in mice; conditions: Mus musculus, PO, PCP 5 mg/kg s.c., read-out: ED50 PCP (inhibition of PCP-induced hyperlocomotion)
Method: On the day of experiments, the mice were brought into the procedural room. They were housed individually and allowed to acclimate for at least a half hour prior to testing. Although the studies were conducted during the light cycle (from 8:00 to 16:00 h), the procedure room was only sparsely lit (3 to 30 LUX) to provide better contrast for the video tracking. Local lighting was used for the injection procedures. During each trial, an individual mouse was placed in an open field arena (grey PVC cylinder with a height of 40 cm and a diameter of 22.5 cm). Each arena was placed on an infrared LED (8×8 LEDs)-lit box (white PVC squared box; 40×40 cm^2; height 12.5 cm). Each mouse was placed in the center of the arena and allowed to explore freely for 30 min. After each trial, the arena was cleaned with a wet and subsequently with a dry cleaning cloth. […] Animal behavior was recorded and analyzed using the Noldus Ethovision XT Video Tracking System (Version 3.1; Noldus, Wageningen, The Netherlands). The total distance traveled (cm) was calculated. […]
Test compound or solvent was administered at a pre-defined time before measurement (standard: 30 min) to male NMRI mice that were challenged with phencyclidine (PCP; 5 mg/kg, s.c.) 30 min before measurement. Activity was measured for a period of 30 min.

male Wiga Wistar rats = assay: Conditioned avoidance response (CAR) test in rats; conditions: Rattus norvegicus, PO, suspension in 20% hydroxypropyl-b-cyclodextrin containing 1% polysorbate 80
Excerpt: The apparatus consisted of an inner box surrounded by an outer box. The inner box was composed of four walls of transparent, synthetic material (length×width×height: 30×30×30 cm), an open top, and a grid floor made of 15 pairs of iron bars (2 mm diameter; 6 mm inter-bar distance). Odd and even bars were connected with a source of alternative current (1.0 mA; Coulbourn Instruments Solid State Shocker/Distributor), which could be interrupted by a switch. The outer box was composed of the same material (length×width×height: 40×40×36 cm), also with an open top, with a distance of 5 cm between the inner and outer box on all sides. To decrease the amount of environmental stimuli, three walls of the outer box were made non-transparent. The front wall was left transparent to allow the necessary inspection of the animal during the test. The upper edge of the outer and inner box served as a target for the rats on which to jump with fore- and hind-paws, respectively. Avoidance Conditioning and Selection of Animals From their arrival in the laboratory on the experimental day, male Wiga Wistar rats (230±30 g) were housed in individual cages provided with bedding material. […] Experimental Sessions The rats were tested 3 times, i.e. at 60, 90 and 120 min after the injection of test compound or solvent. Latency to avoidance was recorded. […]

## C[C@H](Oc1ccc(F)cc1F)c1ccn2c(CC3CC3)nnc2c1C(F)(F)F [Compound 6, 3-(Cyclopropylmethyl)-7-[(1S)-1-(2,4-difluorophenoxy)ethyl]-8-(trifluoromethyl)[1,2,4]triazolo[4,3-a]pyridine]
[1]; 6 Hz 32 mA, 1 h
  # protected/# tested: 0/4
[1]; 6 Hz 32 mA, 4 h
  # protected/# tested: 0/4
[1]; dose-response, 6 Hz 32 mA, 0.5 h TPE
  # protected/# tested: 6/8
[1]; dose-response, 6 Hz 44 mA, 0.5 h TPE
  # protected/# tested: 0/8
Male NMRI mice
  ED50: 28.3 mg/kg
Male Wiga Wistar rats
  ED50: 8.1 mg/kg
